The values that follow come from patent US12427192B2, “Water soluble adjuvant and composition containing same” (Sumitomo Pharma Co., Ltd., priority 2019, dated 2025).

Each structure is given as a SMILES string.

In this assay the test system is MCA-A24/Kb-WT1 tumor cells. As to the kind of experiment: Test 5: enhancement of in vivo suppressive effect of vaccine on tumor growth. As to conditions: 27 days after tumor transplantation; vaccine 7 days before and 7 days after transplantation; compared with vehicle (group a); six mice per group; 100 ng Example 1 per body in group c; FIG. 2. Also on record: species or system mouse. As for the experimental part: Effect for Enhancing the In Vivo Suppressive Effect of Vaccine for Growth of Tumor Vaccine
A suspension of 3-methylcholanthrene in corn oil was administered to a HLA-A*24:02 transgenic mouse intradermally at the ventral region. From the tumor generated at the administration site, HLA-A*2402/Kb-expressing tumor cells were obtained. Cell lines established by stably expressing WT1 antigen peptide (SEQ ID No. 2) in the cells (herein, also referred to as MCA-A24/Kb-WT1 tumor cells) were suspended in Hanks' Balanced Salt Solution and intradermally transplanted to the ventral region of HLA-A*24:02 transgenic mouse (5×10^5 cells per mouse). The mice made to receive a vehicle (Group a), a vaccine (Group b), or a vaccine containing the compound prepared in Example 1 (Group c) were classified. Six mice per group were used. Seven days before the tumor transplantation and seven days after the tumor transplantation, for the mice of Group a, a composition comprising water for injection was emulsified with an equal volume of Montanide ISA 51 VG and the emulsion was administered intradermally at the tail base area (0.1 mL per administration per mouse). […] The tumor diameter was measured 27 days after the tumor transplantation and the tumor volume was calculated.

Take `CCCCCNc1nc(N)nc(C)c1Cc1ccc(CN(C)CCOCCOCCOCCOCCO)cc1OC` [Example 1, 1-(4-{[2-amino-4-methyl-6-(pentylamino)pyrimidin-5-yl]methyl}-3-methoxyphenyl)-2-methyl-5,8,11,14-tetraoxa-2-azahexadecan-16-ol·trifluoroacetate]: the “growth of tumor cells (average tumor volume)” value is “more potently suppressed the growth of tumor cells”.
